# Measurements published in PMC3085482, “Phosphorylation-Dependent Differential Regulation of Plant Growth, Cell Death, and Innate Immunity by the Regulatory Receptor-Like Kinase BAK1” (PLoS Genetics, 2011).
# T1: BRI1 CD (MBP-BRI1) (Arabidopsis thaliana, UniProt O22476)
# T1 sequence (O22476 814-1196): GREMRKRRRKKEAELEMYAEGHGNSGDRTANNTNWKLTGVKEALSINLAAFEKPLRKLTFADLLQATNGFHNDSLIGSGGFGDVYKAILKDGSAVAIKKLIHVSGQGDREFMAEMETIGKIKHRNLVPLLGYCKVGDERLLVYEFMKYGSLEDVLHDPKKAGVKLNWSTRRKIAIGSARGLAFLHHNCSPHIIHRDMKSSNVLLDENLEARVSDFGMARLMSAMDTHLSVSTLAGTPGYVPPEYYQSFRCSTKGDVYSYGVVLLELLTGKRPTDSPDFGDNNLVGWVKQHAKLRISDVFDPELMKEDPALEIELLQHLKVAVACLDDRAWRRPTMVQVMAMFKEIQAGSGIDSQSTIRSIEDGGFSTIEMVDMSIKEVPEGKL
# T2: EFR CD (MBP-EFR) (Arabidopsis thaliana, UniProt C0LGT6)
# T2 sequence (C0LGT6 682-1031): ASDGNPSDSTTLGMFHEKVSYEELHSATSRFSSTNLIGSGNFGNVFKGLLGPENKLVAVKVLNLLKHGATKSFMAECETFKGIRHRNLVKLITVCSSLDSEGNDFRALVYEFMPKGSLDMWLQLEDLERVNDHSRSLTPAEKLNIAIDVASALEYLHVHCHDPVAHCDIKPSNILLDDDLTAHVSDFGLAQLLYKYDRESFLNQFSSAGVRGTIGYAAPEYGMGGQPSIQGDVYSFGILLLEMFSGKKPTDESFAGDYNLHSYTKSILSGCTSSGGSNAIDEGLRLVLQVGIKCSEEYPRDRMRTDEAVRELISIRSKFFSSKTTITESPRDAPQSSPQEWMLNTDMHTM
# B1: BAK1 CD (GST-BAK1) (Arabidopsis thaliana) (protein)
# chain: DHFFDVPAEEDPEVHLGQLKRFSLRELQVASDNFSNKNILGRGGFGKVYKGRLADGTLVAVKRLKEERTQGGELQFQTEVEMISMAVHRNLLRLRGFCMTPTERLLVYPYMANGSVASCLRERPESQPPLDWPKRQRIALGSARGLAYLHDHCDPKIIHRDVKAANILLDEEFEAVVGDFGLAKLMDYKDTHVTTAVRGTIGHIAPEYLSTGKSSEKTDVFGYGVMLLELITGQRAFDLARLANDDDVMLLDWVKGLLKEKKLEALVDVDLQGNYKDEEVEQLIQVALLCTQSSPMERPKMSEVVRMLEGDGLAERWEEWQKEEMFRQDFNYPTHHPAVSGWIIGDSTSQIENEYPSGPR
# notes: cytoplasmic domain residues 256-615, N-terminal GST tag kept (pGEX-4T1), E. coli BL21, glutathione purified
# B2: BAK1 CD (GST-BAK1) (Arabidopsis thaliana; C408Y) (protein)
# chain: DHFFDVPAEEDPEVHLGQLKRFSLRELQVASDNFSNKNILGRGGFGKVYKGRLADGTLVAVKRLKEERTQGGELQFQTEVEMISMAVHRNLLRLRGFCMTPTERLLVYPYMANGSVASCLRERPESQPPLDWPKRQRIALGSARGLAYLHDHYDPKIIHRDVKAANILLDEEFEAVVGDFGLAKLMDYKDTHVTTAVRGTIGHIAPEYLSTGKSSEKTDVFGYGVMLLELITGQRAFDLARLANDDDVMLLDWVKGLLKEKKLEALVDVDLQGNYKDEEVEQLIQVALLCTQSSPMERPKMSEVVRMLEGDGLAERWEEWQKEEMFRQDFNYPTHHPAVSGWIIGDSTSQIENEYPSGPR
# notes: as for B1
# How the values were obtained:
# [1] = target: T1, BRI1 CD (MBP-BRI1); test: in vitro kinase assay with […]-γ-ATP, SDS-PAGE autoradiography; assay type: biochemical; conditions: 1 µM unlabelled ATP plus [32P]-γ-ATP; labelled compound; myelin basic protein; 10 mM MgCl2, 10 mM MnCl2, pH 7.5, 30 °C
# [2] = target: T2, EFR CD (MBP-EFR); test: as above; assay type: biochemical; conditions: 1 µM unlabelled ATP plus [32P]-γ-ATP; labelled compound; myelin basic protein; 10 mM MgCl2, 10 mM MnCl2, pH 7.5, 30 °C
# [3] = substrate: Nc1ncnc2c1ncn2[C@@H]1O[C@H](COP(=O)(O)OP(=O)(O)OP(=O)(O)O)[C@@H](O)[C@H]1O; test: autophosphorylation over ATP range, PVDF blot autoradiography (PhosphorImager); assay type: biochemical, Arabidopsis thaliana
molecule,measurement,setting,value
Nc1ncnc2c1ncn2[C@@H]1O[C@H](COP(=O)(O)OP(=O)(O)OP(=O)(O)O)[C@@H](O)[C@H]1O [ATP],"in vitro kinase assay with [32P]-γ-ATP, SDS-PAGE autoradiography",[1],BRI1 CD had a very strong auto- and trans-phosphorylation capacity
same,"in vitro kinase assay with [32P]-γ-ATP, SDS-PAGE autoradiography",[2],EFR CD possessed only minor auto-phosphorylation capacity
B1,Km,[3]; autophosphorylation of GST-BAK1 CD,∼7 µM
B2,Km,[3]; autophosphorylation of GST-BAK1 CD (BAK1-5 protein),∼25 µM
